Results on two substances are retold here after patent publication US20060247156A1, “Use of neuropeptides for ligament, cartilage, and bone healing” (priority 2004, published 2006).

The test system of one test is healing MCL. Briefly: Local neuropeptide delivery to normally innervated healing MCL: mechanical testing, histomorphology. The conditions noted are these: for histomorphology (H&E) of healing MCL: Example 7, two weeks of healing; for failure force / ultimate stress: Example 7: normally innervated rats, bilateral MCL rupture, mini-osmotic pump (SP 75, CGRP 10, NPY 65, VIP 100 pg/100 μl). It is filed as in vivo, rat. The protocol: Animal Model and Surgery: Forty female Wistar rats (200-250 g) were divided into five groups.
All rats underwent bilateral MCL rupture. Neuropeptides were then delivered ruptured MCLs unilaterally. Neuropeptide infused mini-osmotic pumps (Alzet Corp.) were implanted subcutaneously into the back of each rat. A small catheter running from the pump was run to an intramuscular space above the MCL and was secured.
Mechanical Testing: Mechanical testing was performed as described in Chapter 2. Briefly, animal hind limbs from all groups (n=5 for all groups) were disarticulated at the hip joint and stored at −80° C. until testing. On the day of testing, MCLs including intact femoral and tibial bone sections were excised for ex vivo testing. Ligament thickness and width was measured optically, and MCL area was estimated with elliptical geometry. For strain measurements, optical markers were placed onto the ligament tissue near the insertion sites. A small preload of 0.1N was applied to the ligaments in order to obtain a uniform starting point. The ligaments were then preconditioned to 1% strain for 10 cycles. After preconditioning, ligaments were pulled to failure at a rate of 10% per second.
Tissue displacement was obtained using video dimensional analysis using equations (1) and (2) supra. The mechanical properties that were examined in this study were maximum force, ultimate stress, strain at failure, elastic modulus, and area. Statistical analysis was performed using paired ttests to compare each treated MCL to its contralateral control (alpha=0.05).
Ligaments were immediately fixed in formalin fixative for three days at room temperature. Specimens were embedded in paraffin, sectioned (6 μm), mounted on slides, and stained with hematoxylin and eosin (H&E).

The test system of test [1] is bovine articular chondrocytes. Briefly: Bovine chondrocytes proliferation assay (CellTiter 96 AQueous One). The conditions noted are these: CGRP 100 pg/ml, NPY 50 ng/ml, SP 500 pg/ml, VIP 1 ng/ml. It counts as cell-based. The protocol: (§1) Cartilage chunks were then digested at 37° C. in DMEM containing 0.05% hyaluronidase for 30 minutes, followed by 0.05% collagenase digestion overnight. The digests were filtered through 40-micron nylon mesh and centrifuged at 600×g for 20 minutes. The cell pellets were then resuspended in DMEM and counted using a hemacytometer.
(§2) Cells were plated at 1×10^5 cells/well in 12-well plates (n=9) for proteoglycan assays and at 2×10^4 cells/well in 96-well plates (n=16) for proliferation assays. The culture volumes were 1 ml/well in 12-well plates and 100 μl/well in 96-well plates.
(§3) The plates were incubated at 37° C. in a humidified CO2 incubator for 3 days to allow the cells to recover from the harvesting procedure.
(§4) On Day 3 of treatment, 20 μl of CellTiter 96® AQueous One Solution Cell Proliferation Assay (Promega Corporation, Madison, Wis.) was added to each well of the 96-well cultures for 60 minutes, and cells in the 12-well plates were digested with 0.125 units of papain/well overnight. After the 60-minute incubation, the absorbance of the color generated by the cells in the 96-well plates was measured at wavelength 490 nm.

Test [2] has as its system bovine articular chondrocytes. The test can be described thus: Bovine chondrocytes glycosaminoglycan assay (DMMB). The conditions noted are these: Day 3 of treatment, individual wells. It counts as cell-based. The protocol: as §1, §2, §3, §4
Following papain digestion of the cultures in 12-well plates, the amount of glycosaminoglycan (representative of proteoglycans) in each well was measured using the dimethylmethylene blue (DMMB) dye-binding assay. The results were statistically analyzed and plotted.

Test [3] deals with Bovine nucleus pulposus cells. Briefly: Bovine nucleus pulposus (intervertebral disc) cell proliferation. It is filed as cell-based. The conditions noted are these: day 1, day 2, day 3. The protocol:
Bovine calf spines and femoral condyles were obtained from a slaughterhouse and freshly transported to the laboratory. Nucleus pulposus tissue was carefully dissected, avoiding annular and endplate cartilage tissues, from each disc. Articular cartilage from femoral condyles was dissected in the same manner. […] Cells were harvested by overnight digestion with hyaluronidase and collagenase, followed by filtration. Cells were plated at a density of 1×10^5 cells/ml and incubated at 37° C. in 5% CO2 and 95% air in the presence of each neuropeptide or media only (control). At various time points in growth, cells were collected for proliferation and glycosaminoglycan (GAG) production assays. Varying concentrations of NPs were examined.
Well established colorimetric and luminescent assays (CellTiter 96® AQueous Non-radioactive Cell Proliferation and CellTiter-Glo® Luminescent Cell Viability Assays, Promega, Madison, Wis.) were used to quantify the effect of each NP on cell proliferation. In addition, corresponding cell cultures during growth were digested with papain to release glycosaminoglycans (GAGs). Dimethyl methylene blue (DMMB) colorimetric assays were used to quantify the amount of GAGs in each culture.
Multiple samples for test and control groups were performed simultaneously. Statistical analyses using one way analysis of variance (ANOVA) with large degrees of freedom (n=12 for GAG assays; n=24 for proliferation assays) were performed to establish the significance of differences between test groups and control groups for each day of growth in culture.
The effect of neuropeptides on intervertebral disc cell proliferation was examined in order to elucidate further the pathophysiology of degenerative disc disease. Bovine nucleus pulposus cells were incubated with the same neuropeptides.

Where “and” joins values, the source holds several entries; their conditions need not be identical. Equal entries are not always repeated.

For the substance Substance P [SP], the “histomorphology (H&E) of healing MCL” value with healing MCL was “greatly improved tissue alignment”. Further, the “healed MCL strength relative to intact MCL strength” value in the test with healing MCL (Example 7: SP, two weeks of healing) is 60%. In the test with healing MCL (two weeks of healing), the failure force entry is recorded as “no change” and the ultimate stress came out at 13.4±8.9 MPa. The “proliferation of articular chondrocytes compared to controls (in words)” value in test [1] was “stimulate proliferation”. The “Glycosaminoglycan Assay” value in test [2] (SP 500 pg/ml) is 8.6 μg/dish and 9.1 μg/dish and 8.373 μg/dish and 7.011 μg/dish and 6.556 μg/dish and 7.192 μg/dish and 7.238 μg/dish and 7.283 μg/dish and 8.01 μg/dish. Besides, the “disc cell proliferation compared to controls” value in test [3] (CGRP 10 ng/ml, NPY (mcg/ml, SP 5 mcg/ml)) is recorded as “stimulate disc cell proliferation”.

Take vasoactive intestinal peptide [VIP]: the “histomorphology (H&E) of healing MCL” value in the test with healing MCL is reported as “greatly improved tissue alignment”. In addition, in the test with healing MCL (two weeks of healing), the failure force stood at 10.2±3.0 N and the ultimate stress came to 5.1±1.6 MPa. Moreover, the “proliferation of articular chondrocytes compared to controls (in words)” value in test [1] is recorded as “stimulate proliferation”. Besides, the “Glycosaminoglycan Assay” value in test [2] (VIP 1 ng/ml) was 7.419 μg/dish and 5.966 μg/dish and 6.874 μg/dish and 6.42 μg/dish and 6.965 μg/dish and 3.785 μg/dish and 6.147 μg/dish and 6.511 μg/dish and 8.328 μg/dish. In addition, the disc cell viability result in test [3] (VIP 100 ng/ml) is reported as “negative influence”.
